The source made the active and inactive calls. The rule behind the calls is not given here.
Assays:
[1] = test system: Mus musculus; experiment: Anti-inflammatory activity against MOG35-55-induced experimental autoimmune encephalomyelitis C57BL/6 mouse model assessed as fold change in MAG gene expression in brain at 300 mg/kg/day, ig for 14 days starting from 12th day of immunization by RT-qPCR analysis relative to control; type: functional; details: time 14 day
[2] = test system: Mus musculus; experiment: Anti-inflammatory activity against MOG35-55-induced experimental autoimmune encephalomyelitis C57BL/6 mouse model assessed as fold change in TNF-alpha gene expression in brain at 600 mg/kg/day, ig for 14 days starting from 12th day of immunization by RT-qPCR analysis relative to control; type: functional; details: time 14 day
[3] = test system: Mus musculus; experiment: Anti-inflammatory activity against MOG35-55-induced experimental autoimmune encephalomyelitis C57BL/6 mouse model assessed as reduction in TGB1 protein expression in brain at 300 to 600 mg/kg/day, ig for 14 days starting from 12th day of immunization by western blot analysis; type: functional, organism-based; details: dose 300-600 mg/kg/day, time 14.0 day
[4] = test system: Mus musculus; experiment: Anti-inflammatory activity against MOG35-55-induced experimental autoimmune encephalomyelitis C57BL/6 mouse model assessed as reduction in EAE symptoms by measuring reduction in clinical score at 300 to 600 mg/kg/day, ig starting from 12th day of immunization and measured on day 14 post-immunization; type: functional, organism-based; details: dose 300-600 mg/kg/day, time 2.0 day
[5] = test system: Mus musculus; experiment: Anti-inflammatory activity against MOG35-55-induced experimental autoimmune encephalomyelitis C57BL/6 mouse model assessed as fold change in BCL2 gene expression in brain at 300 mg/kg/day, ig for 14 days starting from 12th day of immunization by RT-qPCR analysis relative to control; type: functional; details: time 14 day
[6] = test system: Mus musculus; experiment: Anti-inflammatory activity against MOG35-55-induced experimental autoimmune encephalomyelitis C57BL/6 mouse model assessed as reduction in serum monokines level by measuring reduction in IL-1B level at 600 mg/kg/day, ig for 14 days starting from 12th day of immunization by ELISA; type: functional, organism-based; details: time 14.0 day
[7] = test system: Mus musculus; experiment: Anti-inflammatory activity against MOG35-55-induced experimental autoimmune encephalomyelitis C57BL/6 mouse model assessed as upregulation of MBP protein expression in brain at 300 to 600 mg/kg/day, ig for 14 days starting from 12th day of immunization by western blot analysis relative to control; type: functional; details: dose 300-600 mg/kg/day, time 14 day
[8] = test system: Mus musculus; experiment: Anti-inflammatory activity against MOG35-55-induced experimental autoimmune encephalomyelitis C57BL/6 mouse model assessed as upregulation of PLP protein expression in brain at 300 to 600 mg/kg/day, ig for 14 days starting from 12th day of immunization by western blot analysis relative to control; type: functional; details: dose 300-600 mg/kg/day, time 14 day
[9] = test system: Mus musculus; experiment: Anti-inflammatory activity against MOG35-55-induced experimental autoimmune encephalomyelitis C57BL/6 mouse model assessed as fold change in YWHAH gene expression in brain at 300 mg/kg/day, ig for 14 days starting from 12th day of immunization by RT-qPCR analysis relative to control; type: functional; details: time 14 day
[10] = test system: Mus musculus; experiment: Anti-inflammatory activity against MOG35-55-induced experimental autoimmune encephalomyelitis C57BL/6 mouse model assessed as methylation of CpG sites of IL11 gene promoter in brain at 600 mg/kg, ig for 14 days starting from 12th day of immunization by PCR analysis (reference value: 61.1 +/-4%); type: functional; details: time 14 day
[11] = test system: Mus musculus; experiment: Anti-inflammatory activity against MOG35-55-induced experimental autoimmune encephalomyelitis C57BL/6 mouse model assessed as fold change in CXCL9 gene expression in brain at 600 mg/kg/day, ig for 14 days starting from 12th day of immunization by RT-qPCR analysis relative to control; type: functional; details: time 14 day
[12] = test system: Mus musculus; experiment: Anti-inflammatory activity against MOG35-55-induced experimental autoimmune encephalomyelitis C57BL/6 mouse model assessed as fold change in MBP gene expression in brain at 600 mg/kg/day, ig for 14 days starting from 12th day of immunization by RT-qPCR analysis relative to control; type: functional; details: time 14 day
[13] = test system: Mus musculus; experiment: Anti-inflammatory activity against MOG35-55-induced experimental autoimmune encephalomyelitis C57BL/6 mouse model assessed as reduction in serum Th1 cytokine level by measuring reduction in TNF-alpha level at 600 mg/kg/day, ig for 14 days starting from 12th day of immunization by ELISA; type: functional, organism-based; details: time 14.0 day
[14] = test system: Mus musculus; experiment: Anti-inflammatory activity against MOG35-55-induced experimental autoimmune encephalomyelitis C57BL/6 mouse model assessed as reduction in serum chemokines level by measuring reduction in CXCL1 level at 600 mg/kg/day, ig for 14 days starting from 12th day of immunization by ELISA; type: functional, organism-based; details: time 14.0 day
[15] = test system: Mus musculus; experiment: Anti-inflammatory activity against MOG35-55-induced experimental autoimmune encephalomyelitis C57BL/6 mouse model assessed as fold change in HIF1A gene expression in brain at 0.15 mg/kg/day, ig for 14 days starting from 12th day of immunization by RT-qPCR analysis relative to control; type: functional; details: time 14 day
[16] = test system: Mus musculus; experiment: Anti-inflammatory activity against MOG35-55-induced experimental autoimmune encephalomyelitis C57BL/6 mouse model assessed as reduction in serum chemokines level by measuring reduction in […] level at 0.3 mg/kg/day, ig for 14 days starting from 12th day of immunization by ELISA; type: functional, organism-based; details: time 14.0 day
[17] = test system: Mus musculus; experiment: Anti-inflammatory activity against MOG35-55-induced experimental autoimmune encephalomyelitis C57BL/6 mouse model assessed as fold change in MBP gene expression in brain at 0.3 mg/kg/day, ig for 14 days starting from 12th day of immunization by RT-qPCR analysis relative to control; type: functional; details: time 14 day
[18] = test system: Mus musculus; experiment: Anti-inflammatory activity against MOG35-55-induced experimental autoimmune encephalomyelitis C57BL/6 mouse model assessed as reduction in serum Th1 cytokine level by measuring reduction in IFNG level at 0.3 mg/kg/day, ig for 14 days starting from 12th day of immunization by ELISA; type: functional, organism-based; details: time 14.0 day
[19] = test system: Mus musculus; experiment: Anti-inflammatory activity against MOG35-55-induced experimental autoimmune encephalomyelitis C57BL/6 mouse model assessed as reduction in serum Th1 cytokine level by measuring reduction in IL-2 level at 0.3 mg/kg/day, ig for 14 days starting from 12th day of immunization by ELISA; type: functional, organism-based; details: time 14.0 day
[20] = test system: Mus musculus; experiment: Anti-inflammatory activity against MOG35-55-induced experimental autoimmune encephalomyelitis C57BL/6 mouse model assessed as fold change in H2EB1 (HLA-DRB1) gene expression in brain at 0.3 mg/kg/day, ig for 14 days starting from 12th day of immunization by RT-qPCR analysis relative to control; type: functional; details: time 14 day
[21] = test system: Mus musculus; experiment: Anti-inflammatory activity against MOG35-55-induced experimental autoimmune encephalomyelitis C57BL/6 mouse model assessed as reduction in EAE symptoms by measuring reduction in cumulative scores at 0.3 mg/kg/day, ig for 14 days starting from 12th day of immunization and measured from day 12 to 38 post-immunization; type: functional, organism-based; details: time 1-26 day
[22] = test system: Mus musculus; experiment: Anti-inflammatory activity against MOG35-55-induced experimental autoimmune encephalomyelitis C57BL/6 mouse model assessed as fold change in GFAP gene expression in brain at 0.3 mg/kg/day, ig for 14 days starting from 12th day of immunization by RT-qPCR analysis relative to control; type: functional; details: time 14 day

CCCCCCCCCCCCCCCCCCCCCCCCC(=O)O[C@H]1CC[C@]2(C)[C@H]3CC=C4[C@@H]5CC(C)(C)CC[C@]5(CO)CC[C@@]4(C)[C@]3(C)CC[C@H]2C1(C)C
fold change (FC) [1]: 1.54
fold change (FC) [2]: 1.52
Activity [3]: Active
Activity [4]: Active
fold change (FC) [5]: 1.76
Activity [6]: Active
fold change (FC) [7]: 2
fold change (FC) [8]: 2
fold change (FC) [9]: -1.38
Activity [10]: 41.4%
fold change (FC) [11]: -1.14
fold change (FC) [12]: 3.8
Activity [13]: Active
Activity [14]: Active

CCCCCCCCc1ccc(CCC(N)(CO)CO)cc1 [FINGOLIMOD]
fold change (FC) [15]: 2.49
Activity [16]: Active
fold change (FC) [17]: 2.28
Activity [18]: Active
Activity [19]: Active
fold change (FC) [20]: 13.9
Activity [21]: Active
fold change (FC) [22]: 1.92

Reference: ChEMBL document CHEMBL5226375, “Synthesis and Comprehensive in Vivo Activity Profiling of Olean-12-en-28-ol, 3β-Pentacosanoate in Experimental Autoimmune Encephalomyelitis: A Natural Remyelinating and Anti-Inflammatory Agent” (J Nat Prod, 2023)
